Experimental data: article PMC9883482, “TPX2 enhances the transcription factor activation of PXR and enhances the resistance of hepatocellular carcinoma cells to antitumor drugs” (Cell Death & Disease, 2023)
Read-outs that look alike come from different tables or passages of the source.

Columns and labels:
[1] = test system: LS180 cells; assay: MTT cell survival examination; type: cell-based; details: Homo sapiens
Description: (§1) The antitumor activity of antitumor drugs injuring HCC cells was examined by using MTT assay. After culturing the HCC cells, transfection experiments were performed, and the cells were then seeded in 96-well cell culture plates (about 8000 cells per well). […] After the cells were treated with the drug for about 48 h, a dose of […] tetrazolium (MTT) reagent was added, and cells with the MTT reagent were incubated for 5 to 6 h. After incubation with the MTT was complete, all liquid in the 96-well cell culture plate was discarded, and about 100 μl of DMSO was added to each well to dissolve the cell samples. During the process of lysing the cell samples, the cell culture plate was shaken for 15 minutes to completely lyse the cells. After the lysis step was complete, the cell culture plate was centrifuged at 12,000 rpm at 4 °C, and the supernatant was collected for evaluation.
(§2) All statistical analyses in the presence work were performed using the GraphPad 8.0 (GraphPad Software Corporation, Armonk, NY, USA). […] For the survival analysis data, the survival curves were analyzed by the log-rank (Mantel–Cox) test to detect the P-value of the survival curve, the median survival time, and the 95% confidence interval (CI). For the co-relationship analysis, the data were analyzed by linear regression to determine the overall trend of a group of data points. […] If the slope was positive, the horizontal coordinate was positively related to the vertical coordinate, and if the slope was negative, the horizontal coordinate was negatively related to the vertical coordinate. For the multi-grouped data, the ordinary one-way analysis of variance (ANOVA) and multiple comparison methods were used. An ANOVA was used to examine whether any difference between groups could be detected. The multiple comparisons (t-test) was used to detect differences between pairs of data.

[2] = Sorafenib metabolism/clearance in subcutaneous tumor tissues, LC-MS/MS; type: in vivo, nude mice; details: nude, mouse, read-out: t1/2 values (converted)
Description: (§3) For HCC subcutaneous tumor tissue, HCC cells were first cultured for transfection after which the cells were inoculated subcutaneously into nude mice to form tumor tissue. […] The HCC tumor tissues were collected at each time point described previously with the addition of 72 and 96 h.
(§4) During the extraction of sorafenib samples from HCC tissue samples, the tissue samples were shredded to form tissue micro-blocks and then ground with liquid nitrogen. The samples ground with liquid nitrogen were mixed with PBS and then mixed with the organic solvent acetonitrile at a ratio of 1:1. The samples were then crushed and extracted for about 30 min using vortex shaking. After that, the samples were centrifuged at 12,000 rpm and at 4 °C for about 15 to 20 min. At this time, the sample was separated into cell debris and organic and water phases.
(§5) S transition pair was detected using LC–MS/MS: (1) the parent ion was 465 Da and (2) the product ion was 252 Da.
as §2

[3] = test system: subcutaneous tumor tissue formed by MHCC97-L cells; assay: as above; type: in vivo, nude mice; details: MHCC97-L subcutaneous tumour tissues, control group (rifampicin experiment)
Description: as §3, §4, §5, §2

[4] = Blood concentration assay of sorafenib, mice bearing MHCC97-L tumours; type: in vivo; details: nude, mouse, plasma, 2 mg/kg, 2 mg/kg oral
Description: Table notes: After overexpression of TPX2 in MHCC97-L cells, the cells were inoculated with nude mice to form subcutaneous tumour tissue (the volume of tumour tissue was approximately 1 g) and then given 2 mg/kg via oral administration. After overexpression of TPX2 in MHCC97-L cells, the cells were inoculated into nude mice to form subcutaneous tumour tissue and then in situ liver tumour tissue was established. 2mg/kg via oral administration was given to nude mice. Thereafter, blood levels of sorafenib were measured.

[5] = test system: HCC subcutaneous tumor tissues; assay: Sorafenib retention in HCC subcutaneous tumor tissues, LC-MS/MS; type: in vivo, nude mice; details: 72-h time point after intratumoral injection
Description: as §3, §4, §5

[6] = test system: HCC cells (MHCC97-H, MHCC97-L, or HepG2); assay: Sorafenib retention in cultured HCC cells, LC-MS/MS; type: in vitro ADME, human; details: 48-h time point after 1 μmol/L incubation
Description: After incubation with sorafenib was complete, the medium containing sorafenib was discarded and replaced with normal DMEM + FBS for continuous cultures. Cell samples were collected at each time point starting at 0 (when the cell samples were collected immediately after the incubation step/baseline) followed by 4, 8, 12, 24, and 48 h.
For sorafenib-treated samples in cellular experiments, sorafenib processing and extraction of the samples were performed. HCC cell samples were re-suspended in PBS after which the organic solvent acetonitrile at a ratio of 1:1 was added. The samples were then crushed and extracted for about 30 min with vortex shaking. After that step, the samples were centrifuged at 12,000 rpm at 4 °C for about 15 to 20 min. At this time, the samples were separated into cell debris, organic, and water phases. The collected organic phase contained the sample of sorafenib in acetonitrile.
as §5

[7] = test system: HepG2 cells; assay: MTT cell survival examination; type: cell-based; details: Homo sapiens, HepG2, 48 h
Description: (§6) In the process of dissolving these pure drug powders, stirring, vortexing, and ultrasonic vibration were used to assist dissolution [17, 18]. After a drug was fully dissolved, Dulbecco’s modified Eagle’s medium (DMEM) without fetal bovine serum (FBS) was used to dilute the drug dissolved in DMSO. For doxorubicin, we used DMEM without FBS to dissolve the drug. When performing cell viability experiments (tetrazolium [MTT] assays), these drugs were diluted.
as §1, §2

[8] = test system: MHCC97-H cells; assay: MTT cell survival examination; type: cell-based; details: Homo sapiens, MHCC97H, 48 h
Description: as §6, §1, §2

[9] = test system: MHCC97-L cells; assay: MTT cell survival examination; type: cell-based; details: Homo sapiens, MHCC97L, 48 h, median (95% CI)
Description: as §6, §1, §2

[10] = oral, Subcutaneous MHCC97-L Control tumour
[11] = oral, Subcutaneous MHCC97-L TPX2 tumour
[12] = po, intrahepatic MHCC97-L Control tumour
[13] = po, intrahepatic MHCC97-L TPX2 tumour

CNC(=O)c1cc(Oc2ccc(NC(=O)Nc3ccc(Cl)c(C(F)(F)F)c3)cc2)ccn1 [sorafenib]
IC50 ([1]; LS180, LS180, TPX2 knockdown): 250 nM | IC50 ([1]; LS180, LS180, TPX2 overexpression): 4300 nM | IC50 ([1]; LS180, LS180, control group): 910 nM | half-life ([2]; subcutaneous tumor tissue formed by HepG2 cells, Control, median (95% CI)): 29.4 h | half-life ([2]; subcutaneous tumor tissue formed by HepG2 cells, TPX2 overexpression, median (95% CI)): 18.5 h | half-life ([2]; subcutaneous tumor tissue formed by HepG2 cells, siTPX2, median (95% CI)): 42.2 h | half-life ([2]; subcutaneous tumor tissue formed by MHCC97-H cells, Control, median (95% CI)): 19.7 h | half-life ([2]; subcutaneous tumor tissue formed by MHCC97-H cells, siTPX2, median (95% CI)): 27.5 h | half-life ([2]; subcutaneous tumor tissue formed by MHCC97-L cells, MHCC97-L tumor tissues, Control, median (95% CI)): 28.3 h | half-life ([2]; subcutaneous tumor tissue formed by MHCC97-L cells, MHCC97-L tumor tissues, TPX2 overexpression, median (95% CI)): 13.5 h | half-life ([2]; subcutaneous tumor tissue formed by MHCC97-L cells, other: injected directly into the tumor tissue, MHCC97-L subcutaneous tumour tissues, TPX2 overexpression + rifampicin 5 mg/kg oral): 11.4 h | half-life ([2]; subcutaneous tumor tissue formed by MHCC97-L cells, other: injected directly into the tumor tissue, MHCC97-L subcutaneous tumour tissues, TPX2 overexpression group (rifampicin experiment)): 14 h | t1/2 values [3]: 29.70 [21.38–36.75] | concentration at 2 h [4, 10]: 17.4 ± 9.73 ng/mL | concentration at 2 h [4, 11]: 13.9 ± 6.77 ng/mL | concentration at 8 h [4, 10]: 142 ± 26.8 ng/mL | concentration at 8 h [4, 11]: 122 ± 27.9 ng/mL | concentration at 20 h [4, 10]: 112 ± 30.5 ng/mL | concentration at 20 h [4, 11]: 99.8 ± 19.6 ng/mL | concentration at 40 h [4, 10]: 44.4 ± 16.9 ng/mL | concentration at 40 h [4, 11]: 29.6 ± 17.2 ng/mL | concentration at 2 h [4, 12]: 17.9 ± 8.39 ng/mL | concentration at 2 h [4, 13]: 18.1 ± 9.63 ng/mL | concentration at 8 h [4, 12]: 138 ± 27.9 ng/mL | concentration at 8 h [4, 13]: 144 ± 30 ng/mL | concentration at 20 h [4, 12]: 117 ± 29.9 ng/mL | concentration at 20 h [4, 13]: 115 ± 29.9 ng/mL | concentration at 40 h [4, 12]: 51.6 ± 17.2 ng/mL | concentration at 40 h [4, 13]: 41.4 ± 19.1 ng/mL | metabolism and elimination in HCC tissues [5]: almost completely metabolized and eliminated | metabolism and elimination in cultured HCC cells [6]: almost completely metabolized and eliminated | IC50 ([7]; HepG2, Control, median (95% CI)): 1270 nM | IC50 ([7]; HepG2, TPX2 overexpression, median (95% CI)): 4680 nM | IC50 ([7]; HepG2, siTPX2, median (95% CI)): 500 nM | IC50 ([8]; Control, median (95% CI)): 1160 nM | IC50 ([8]; siTPX2, median (95% CI)): 470 nM | IC50 ([9]; Control): 1860 nM | IC50 ([9]; TPX2 overexpression): 4840 nM
